{
  "source": "patent US20240058283A1",
  "about": "“THE MODE OF ACTION OF N-MeDCPA ON TRPC CHANNELS” (West Virginia University Board of Governors on Behalf of …, priority 2022, published 2024)",
  "key": {"[1]": {"test_system": "Mouse splenic monocytes", "test": "Osteoclast resorption (pit formation) on Corning osteo-assay surface plates", "format": "cell-based", "details": "1 ng/ml RANKL, 2 ng/ml TNFα, 50 ng/ml m-CSF; 7, 14 or 21 days; 100 nM ELP-004", "description": "Mouse splenic monocytes were induced to differentiate by the addition of 1 ng/ml RANKL, 2 ng/ml TNFα and 50 ng/ml m-CSF. The panels of FIG. 6 show a representative photomicrograph of cells after 7, 14, or 21 days of culture on Corning osteo-assay surface plates with RANKL+mCSF+TNFα or with the addition of 100 nM ELP-004."}, "[2]": {"target": "dopamine transporter (Homo sapiens, UniProt Q01959)", "sequence (Q01959 whole entry)": "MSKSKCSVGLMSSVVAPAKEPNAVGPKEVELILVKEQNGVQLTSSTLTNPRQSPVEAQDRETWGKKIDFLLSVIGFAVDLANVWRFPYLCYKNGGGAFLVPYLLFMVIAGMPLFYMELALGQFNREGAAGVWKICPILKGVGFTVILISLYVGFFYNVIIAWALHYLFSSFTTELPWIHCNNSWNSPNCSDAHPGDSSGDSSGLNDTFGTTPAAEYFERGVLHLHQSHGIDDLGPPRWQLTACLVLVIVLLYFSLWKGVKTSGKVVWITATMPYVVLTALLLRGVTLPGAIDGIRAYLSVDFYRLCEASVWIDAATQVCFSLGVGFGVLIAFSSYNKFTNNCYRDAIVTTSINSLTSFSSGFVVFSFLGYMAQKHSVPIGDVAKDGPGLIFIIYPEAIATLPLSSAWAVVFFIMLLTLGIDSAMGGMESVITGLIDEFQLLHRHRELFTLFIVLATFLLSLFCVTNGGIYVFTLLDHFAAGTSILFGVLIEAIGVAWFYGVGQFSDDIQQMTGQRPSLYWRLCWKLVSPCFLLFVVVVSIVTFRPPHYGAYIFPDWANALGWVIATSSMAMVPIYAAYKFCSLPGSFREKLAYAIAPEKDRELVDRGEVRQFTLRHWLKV", "test": "Dopamine transport", "description": "ELP-004 was evaluated for its ability to cross the blood brain barrier. […] Other medications, such as for example but not limited to bupropion are known to cause problems due to dopamine transporter binding."}},
  "data": [
    {"compound": "CCC(=O)N(C)c1ccc(Cl)c(Cl)c1", "note": "[ELP-004, N-(3,4-dichlorophenyl)-N-methylpropanamide]", "values": [
      {"measurement": "pit formation (osteoclast resorption)", "setting": "[1]", "value": "inhibited pit formation"},
      {"measurement": "problems with dopamine transport", "setting": "[2]", "value": "does not cause problems with dopamine transport"}
    ]}
  ]
}
